Laboratory results as given in PMC12471299, “Secondary Metabolites of the Marine Sponge-Derived Fungus Aspergillus subramanianii 1901NT-1.40.2 and Their Antimicrobial and Anticancer Activities” (Marine Drugs, 2025).
Where two headings read alike, the source gives them in different places.

Experiments:
H9c2 cardiomyocytes = experiment: Cell viability assay (MTT); format: cell-based, rat
Text: (§1) Rat cardiomyocyte H9c2 cells were kindly provided by Prof. Dr. Gunhild von Amsberg from the Martini-Klinik Prostate Cancer Center, University Hospital Hamburg-Eppendorf, Hamburg, Germany. The human HaCaT keratinocyte cell line was kindly provided by Prof. N. Fusenig (Cancer Research Centre, Heidelberg, Germany). Non-cancerous human breast epithelial MCF-10A cells were kindly provided by Dr. Irina Zhitnyak (N. N. Blokhin National Medical Research Center of Oncology, Moscow, Russia). Human breast cancer MCF-7 HTB-22 and MDA-MB-231 cells were obtained from the ATTC (Manassas, VA, USA).
(§2) H9c2 and HaCaT cells were cultured in DMEM with 10% fetal bovine serum and 1% penicillin/streptomycin (BioloT, St. Petersburg, Russia). MCF-7 and MDA-MB-231 cells were cultured in MEM (BioloT, St. Petersburg, Russia) with 10% fetal bovine serum (FBS) and 1% penicillin/streptomycin (BioloT, St. Petersburg, Russia). MCF 10A cells were cultured in DMEM F12 medium (BioloT, St. Petersburg, Russia) supplemented with 20% FBS, 20 ng/mL hrEGF (Sci-Store, Moscow, Russia), and 1% penicillin/streptomycin (BioloT, St. Petersburg, Russia). All cells were cultured at 37 °C in a humidified atmosphere containing 5% CO2.
(§3) H9c2 cells were seeded at a concentration of 3 × 10^3 cells/well. MCF-10A, MCF-7, and MDA-MB-231 cells were seeded at 5 × 10^3 cells/well, and HaCaT cells were seeded at 1 × 10^4 cells/well. The experiments were initiated after 24 h.
(§4) Compounds at concentrations up to 100 µM were added to the wells for 24h or 48 h, and the viability of the cells was measured using an MTT (3-(4,5-dimethylthiazol-2-yl)-2,5-diphenyltetrazolium bromide) assay, which was performed according to the manufacturer’s instructions (Sigma-Aldrich, Munich, Germany). […] DMSO was used as a control. The results are presented as percentages of the control data.

[1] = Cell viability assay (MTT); format: cell-based, rat; conditions: rat, H9c2 cardiomyocytes, read-out: Cytotoxicity IC50
Text: as §1, §2, §3, §4

[2] = tested on: Staphylococcus aureus ATCC 21027; experiment: Biofilm formation assay (MTT); format: cell-based
Protocol: (§5) The Gram-positive bacterial Staphylococcus aureus ATCC 21027, Gram-negative bacterial Escherichia coli VKPM (B-7935), and yeast-like fungal Candida albicans KMM 455 strains were fermented on solid medium Mueller Hinton broth with agar (16.0 g/L) in a Petri dish at 37 °C for 24 h. The antimicrobial activity of the compound was tested at concentrations ranging from 100 µM and lower. The effect of the compound on bacterial growth was estimated as described by. Gentamicin and amphotericin B were used as positive controls against S. aureus, E. coli, and C. albicans, and a 1% dimethyl sulfoxide (DMSO) solution in PBS was used as a negative control. The optical density of the bacterial suspension after 18 h was measured at λ = 620 nm. The effect of the compound on biofilm formation for 18 h was tested using MTT reagent (Sigma-Aldrich, St. Louis, MO, USA) in accordance with. The optical density of the obtained solution was measured at λ = 570 nm. A Multiskan FS spectrophotometer (Thermo Scientific Inc., Beverly, MA, USA) was used for both assays. The results were calculated as percentages of the control data and presented as minimal concentrations reduced by 50% of growth or biofilm formation (MIC50).

[3] = tested on: Escherichia coli VKPM (B-7935); experiment: Biofilm formation assay (MTT); format: cell-based
Protocol: as §5

Candida albicans KMM 455 [4] = experiment: Biofilm formation assay (MTT); format: cell-based
Protocol: as §5

[5] = tested on: Staphylococcus aureus ATCC 21027; experiment: Antimicrobial assay, growth inhibition (optical density); format: cell-based
Protocol: as §5

[6] = tested on: Escherichia coli VKPM (B-7935); experiment: as above; format: cell-based
Protocol: as §5

Candida albicans KMM 455 [7] = experiment: as above; format: cell-based
Protocol: as §5

[8] = tested on: MCF-10A breast epithelial cells; experiment: Cell viability assay (MTT); format: cell-based, human; conditions: MCF10A
Text: as §1, §2, §3, §4

[9] = tested on: MCF-7 breast cancer cells; experiment: Cell viability assay (MTT); format: cell-based, human
Text: as §1, §2, §3, §4

HaCaT keratinocytes = experiment: Cell viability assay (MTT); format: cell-based, human
Text: as §1, §2, §3, §4

[10] = tested on: MDA-MB-231 breast cancer cells; experiment: Cell viability assay (MTT); format: cell-based, human
Text: as §1, §2, §3, §4

[11] = Cell viability assay (MTT); format: cell-based, human; conditions: human, read-out: Cytotoxicity IC50
Text: as §1, §2, §3, §4

Cc1c(C)c(O)c2c(c1C)C(C)C(=O)OC2=O (stereo not shown) [Compound 4, sclerin]
cell viability (H9c2 cardiomyocytes; H9c2, 24 h, 1.0 µM): 101.9 ± 5.8 % of control
cell viability (H9c2 cardiomyocytes; H9c2, 24 h, 10.0 µM): 101.9 ± 6.1 % of control
cell viability (H9c2 cardiomyocytes; H9c2, 24 h, 100.0 µM): 73.5 ± 4.4 % of control
cell viability (H9c2 cardiomyocytes; H9c2, 48 h, 1.0 µM): 101.4 ± 5.6 % of control
cell viability (H9c2 cardiomyocytes; H9c2, 48 h, 10.0 µM): 102.6 ± 7.4 % of control
cell viability (H9c2 cardiomyocytes; H9c2, 48 h, 100.0 µM): 56.2 ± 0.9 % of control
IC50 at 24 h ([1]; H9c2, 24 h): > 100 µM
IC50 at 48 h ([1]; H9c2, 48 h): 57.2 ± 2.4 µM
Biofilm formation, MIC50 ([2]; S. aureus, 18 h): >100 µM
effect on S. aureus biofilm formation ([2]; at / up to 100 µM): did not affect
Biofilm formation, MIC50 ([3]; E. coli, 18 h): >100 µM
effect on E. coli biofilm formation ([3]; at / up to 100 µM): did not affect
Biofilm formation, MIC50 (Candida albicans KMM 455 [4]; C. albicans, 18 h): >100 µM
prevention of C. albicans biofilm formation (Candida albicans KMM 455 [4]; at 100 µM): 20.22 ± 5.24%
MIC50 ([5]; Staphylococcus aureus, ATCC21027, 18 h, S. aureus, 18 h): > 100 µM
effect on S. aureus growth ([5]; at / up to 100 µM): did not affect
MIC50 ([6]; Escherichia coli, 18 h, E. coli): > 100 µM
effect on E. coli growth ([6]; at / up to 100 µM): did not affect
MIC50 (Candida albicans KMM 455 [7]; Candida albicans, KMM455, 18 h, C. albicans, 18 h): > 100 µM
effect on C. albicans growth (Candida albicans KMM 455 [7]; at / up to 100 µM): did not affect
cell viability ([8]; 24 h, 1.0 µM): 90.8 ± 7.8 % of control
cell viability ([8]; 24 h, 10.0 µM): 88.6 ± 5.2 % of control
cell viability ([8]; 24 h, 100.0 µM): 47.0 ± 3.2 % of control
cell viability ([8]; 48 h, 1.0 µM): 98.0 ± 4.0 % of control
cell viability ([8]; 48 h, 10.0 µM): 96.8 ± 2.1 % of control
cell viability ([8]; 48 h, 100.0 µM): 73.5 ± 1.1 % of control
cell viability ([9]; MCF-7, 24 h, 1.0 µM): 104.3 ± 4.6 % of control
cell viability ([9]; MCF-7, 24 h, 10.0 µM): 103.4 ± 5.4 % of control
cell viability ([9]; MCF-7, 24 h, 100.0 µM): 68.3 ± 4.5 % of control
cell viability ([9]; MCF-7, 48 h, 1.0 µM): 88.5 ± 4.7 % of control
cell viability ([9]; MCF-7, 48 h, 10.0 µM): 95.9 ± 3.5 % of control
cell viability ([9]; MCF-7, 48 h, 100.0 µM): 74.1 ± 4.5 % of control
cell viability (HaCaT keratinocytes; 24 h, 1.0 µM): 100.2 ± 6.6 % of control
cell viability (HaCaT keratinocytes; 24 h, 10.0 µM): 94.7 ± 5.0 % of control
cell viability (HaCaT keratinocytes; 24 h, 100.0 µM): 49.5 ± 6.0 % of control
cell viability (HaCaT keratinocytes; 48 h, 1.0 µM): 96.4 ± 1.4 % of control
cell viability (HaCaT keratinocytes; 48 h, 10.0 µM): 72.1 ± 11.1 % of control
cell viability (HaCaT keratinocytes; 48 h, 100.0 µM): 51.5 ± 2.1 % of control
cell viability ([10]; MDA-MB-231, 24 h, 1.0 µM): 94.8 ± 4.2 % of control
cell viability ([10]; MDA-MB-231, 24 h, 10.0 µM): 102.7 ± 4.9 % of control
cell viability ([10]; MDA-MB-231, 24 h, 100.0 µM): 63.1 ±1.6 % of control
cell viability ([10]; MDA-MB-231, 48 h, 1.0 µM): 94.3 ± 3.9 % of control
cell viability ([10]; MDA-MB-231, 48 h, 10.0 µM): 91.8 ± 7.5 % of control
cell viability ([10]; MDA-MB-231, 48 h, 100.0 µM): 47.1 ± 6.2 % of control
IC50 at 24 h ([11]; HaCaT keratinocytes, 24 h): ≥ 100 µM
IC50 at 48 h ([11]; HaCaT keratinocytes, 48 h): ≥ 100 µM
IC50 at 24 h ([11]; MCF-7 breast cancer cells, MCF-7, 24 h): > 100 µM
IC50 at 48 h ([11]; MCF-7 breast cancer cells, MCF-7, 48 h): > 100 µM
IC50 at 24 h ([11]; MCF-10A breast epithelial cells, MCF10A, 24 h): 93.4 ± 3.5 µM
IC50 at 48 h ([11]; MCF-10A breast epithelial cells, MCF10A, 48 h): > 100 µM
IC50 at 24 h ([11]; MDA-MB-231 breast cancer cells, MDA-MB-231, 24 h): > 100 µM
IC50 at 48 h ([11]; MDA-MB-231 breast cancer cells, MDA-MB-231, 48 h): 94.1 ± 3.2 µM
